Common to all, as to assay: ITC
Assay [1] has as its system AI-TES-R3R5HD-T (DNA, aptamer) GGACGACGGGGATTTGGGGTTTTCTATGTTTTTCGTCCTTTTTTTGCTGCGTTCTCCATTCTGG
In assay [2] the test system is CS-R7MP-T (DNA, aptamer) CGGGACGACGGGGATTTTATTTGCACTATGTGGCTCGTTCGGGGTGTGCTGCGTTCTCCATTCTGG
The note with it: one-site fit.

In assay [3] the test system is CS-R5MP (DNA, aptamer) GGCTCTCGGGACGACGGGGATTTTTGGTGCACTATGTGGTTCGTTCGGGGTGGGCTGCGTTCTCCATTCTGG
The settings on record: one-site fit.

Where [4] appears, read: one-site fit, aptamer identified from Figure 3e legend.

Like-named read-outs stand apart in the source and are kept apart here.

`CC(=O)[C@H]1CC[C@H]2[C@@H]3CCC4=CC(=O)CC[C@]4(C)[C@H]3CC[C@]12C` registered a KD in assay [1] (setting [4]) of 9.38 µM.
With `C[C@]12CCC(=O)C=C1CC[C@@H]1[C@@H]2[C@@H](O)C[C@@]2(C)[C@H]1CC[C@]2(O)C(=O)CO`, the KD is 5.1 µM in assay [2] and ~ 2.41 μM in assay [3].
As for `C[C@]12CC[C@@H]3c4ccc(O)cc4CC[C@H]3[C@@H]1CC[C@@H]2O`, the KD in assay [1] (setting [4]) was 6.22 µM.
`C[C@]12CC[C@H]3[C@@H](CCC4=CC(=O)CC[C@@]43C)[C@@H]1CC[C@@H]2O` displayed a dissociation constant (KD) in assay [1] of 0.313 µM.

The record behind these values is paper PMC12713628 (2025).
